US20250206760A1, “NITROGEN-CONTAINING HETEROCYCLIC COMPOUND, PREPARATION METHOD THEREFOR, AND PHARMACEUTICAL APPLICATION THEREOF” (Jiangsu Hengrui Pharmaceuticals Co., Ltd., priority 2022, published 2025)

Legend:
Format in all cases: cell-based
[1] = test system: HER2 wild-type Ba/F3 cells; assay: Ba/F3 cell proliferation assay, HER2 wild-type; conditions: Mus musculus, BaF3, 72 h, Celltiter-Glo cell viability; for GI50: read-out: HER2 WT/BaF3 GI50; for Emax: read-out: HER2 WT/BaF3 Imax %
Description: (§1) EGFR wild-type Ba/F3 cells (Cobioer, Cat. No. CBP73110) in the logarithmic growth phase were seeded into a 96-well plate at 2.5×10^3 cells/[…] in a growth medium, and HER2 wild-type Ba/F3 cells (Cobioer, Cat. No. CBP73110) or HER2 A775_G776insYVMA mutant Ba/F3 (Cobioer, Cat. No. CBP73184) in the logarithmic growth phase were seeded into a 96-well plate at 5×10^3 cells/100 μL in a growth medium.
(§2) The plates were placed in a cell incubator at 37° C. overnight. The compound diluted in 3-fold gradient with a medium was added to the plates at 100 μL/well the next day. All treatments were performed in triplicate. The plates were cultured in the cell incubator at 37° C. for another 72 h. Celltiter-Glo Luminescent cell viability assay was performed.
(§3) The cell proliferation rate corresponding to each well was calculated according to the following formula: proliferation %=(test compound well G3-GO average value)/(DMSO control well G3 average value -GO average value)×100. According to the corresponding proliferation rate and concentration of each gradient concentration well, a gradient curve of cell proliferation was fitted using Prism Graphpad software, and GI50 (GI50 is defined as the concentration of a compound corresponding to the cell proliferation inhibition rate of 50%) of the compound was calculated.

[2] = test system: HER2 A775_G776insYVMA mutant Ba/F3; assay: Ba/F3 cell proliferation assay, HER2 A775_G776insYVMA mutant; conditions: Mus musculus, BaF3, 72 h, Celltiter-Glo cell viability; for GI50: read-out: HER2 A775_G776 ins YVMA/BaF3 GI50; for Emax: read-out: HER2 A775_G776 ins YVMA/BaF3 Imax %
Description: as §1, §2, §3

[3] = test system: EGFR wild-type Ba/F3 cells; assay: Ba/F3 cell proliferation assay, EGFR wild-type; conditions: 72 h, Celltiter-Glo cell viability; for GI50: Mus musculus, BaF3, read-out: EGFR WT/BaF3 GI50
Description: as §1, §2, §3

| Compound | GI50 [1] | Emax [1] | GI50 [2] | Emax [2] | EGFR WT/BaF3 Imax % [3] | GI50 [3] |
| --- | --- | --- | --- | --- | --- | --- |
| C=CC(=O)N1[C@@H]2CC[C@H]1C[C@H](Oc1ccc3ncnc(Nc4ccc(Oc5ccc6c(c5)ncn6C)c(C)c4F)c3c1)C2 [Example 19, 1-(exo-3-((4-((2-Fluoro-3-methyl-4-((1-methyl-1H-benzo[d]imidazol-5-yl)oxy)phenyl)amino)quinazolin-6-yl)oxy)-8-azabicyclo[3.2.1]octan-8-yl)prop-2-en-1-one] | 14.9 nM | 100% | 27 nM | 100% |  |  |
| C=CC(=O)N1[C@@H]2CC[C@H]1C[C@@H](Oc1ccc3ncnc(Nc4ccc(Oc5ccc6c(c5)ncn6C)c(C)c4)c3c1)C2 [Example 2, 1-(endo-3-((4-((3-Methyl-4-((1-methyl-1H-benzo[d]imidazol-5-yl)oxy)phenyl)amino)quinazolin-6-yl)oxy)-8-azabicyclo[3.2.1]octan-8-yl)prop-2-en-1-one] | 18.9 nM | 100% | 24 nM | 100% | 99% | 2300 nM |
| C=CC(=O)N1[C@@H]2CC[C@H]1C[C@H](Oc1cc3c(Nc4ccc(Oc5ccn6ncnc6c5)c(C)c4)ncnc3cc1OC)C2 [Example 6, 1-(exo-3-((4-((4-([1,2,4]Triazolo[1,5-a]pyridin-7-yloxy)-3-methylphenyl)amino)-7-methoxyquinazolin-6-yl)oxy)-8-azabicyclo[3.2.1]octan-8-yl)prop-2-en-1-one] | 25.2 nM | 100% | 21.4 nM | 100% |  |  |
| C=CC(=O)N1[C@@H]2CC[C@H]1C[C@@H](Oc1ccc3ncnc(Nc4ccc(Oc5ccn6ncnc6c5)c(C)c4)c3c1)C2 [Example 1, 1-(endo-3-((4-((4-([1,2,4]Triazolo[1,5-a]pyridin-7-yloxy)-3-methylphenyl)amino)quinazolin-6-yl)oxy)-8-azabicyclo[3.2.1]octan-8-yl)prop-2-en-1-one] | 4.1 nM | 100% | 3.4 nM | 100% | 97% | 3740 nM |
| C=CC(=O)N1[C@@H]2CC[C@H]1C[C@H](Oc1ccc3ncnc(Nc4ccc(Oc5cc6ncnn6cn5)c(C)c4)c3c1)C2 [Example 8, 1-(exo-3-((4-((4-([1,2,4]Triazolo[1,5-c]pyrimidin-7-yloxy)-3-methylphenyl)amino)quinazolin-6-yl)oxy)-8-azabicyclo[3.2.1]octan-8-yl)prop-2-en-1-one] | 6.3 nM | 100% | 15.7 nM | 100% |  |  |
| C=CC(=O)N1[C@@H]2CC[C@H]1C[C@H](Oc1cc3c(Nc4ccc(Oc5ccc6c(c5)ncn6C)c(C)c4F)ncnc3cc1OC)C2 [Example 15, 1-(exo-3-((4-((2-Fluoro-3-methyl-4-((1-methyl-1H-benzo[d]imidazol-5-yl)oxy)phenyl)amino)-7-methoxyquinazolin-6-yl)oxy)-8-azabicyclo[3.2.1]octan-8-yl)prop-2-en-1-one] | 14.9 nM | 100% | 19.4 nM | 100% |  |  |
| C=CC(=O)N1[C@@H]2CC[C@H]1C[C@@H](Oc1cc3c(Nc4ccc(Oc5ccn6ncnc6c5)c(C)c4F)ncnc3cn1)C2 [Example 20, 1-(endo-3-((4-((4-([1,2,4]Triazolo[1,5-a]pyridin-7-yloxy)-2-fluoro-3-methylphenyl)amino)pyrido[3,4-d]pyrimidin-6-yl)oxy)-8-azabicyclo[3.2.1]octan-8-yl)prop-2-en-1-one] | 13.2 nM | 100% | 15.5 nM | 100% | 100% | 3510 nM |
| Cc1cc(Nc2ncnc3ccc(NC4=NC(C)(C)CO4)cc23)ccc1Oc1ccn2ncnc2c1 [Tucatinib, tucatinib, reference compound] |  |  |  | 100% |  |  |
| C=CC(=O)N1[C@@H]2CC[C@H]1C[C@H](Oc1ccc3ncnc(Nc4ccc(Oc5ccn6ncnc6c5)c(C)c4)c3c1)C2 [Example 9, 1-(exo-3-((4-((4-([1,2,4]Triazolo[1,5-a]pyridin-7-yloxy)-3-methylphenyl)amino)quinazolin-6-yl)oxy)-8-azabicyclo[3.2.1]octan-8-yl)prop-2-en-1-one] | 13.5 nM | 100% | 13.8 nM | 100% |  |  |
| C=CC(=O)N1[C@@H]2CC[C@H]1C[C@H](Oc1cc3c(Nc4ccc(Oc5ccn6ncnc6c5)c(C)c4F)ncnc3cc1OC)C2 [Example 13, 1-(exo-3-((4-((4-([1,2,4]Triazolo[1,5-a]pyridin-7-yloxy)-2-fluoro-3-methylphenyl)amino)-7-methoxyquinazolin-6-yl)oxy)-8-azabicyclo[3.2.1]octan-8-yl)prop-2-en-1-one] | 4.8 nM | 100% | 8.2 nM | 100% |  |  |
| C=CC(=O)N1[C@@H]2CC[C@H]1C[C@H](Oc1cc3c(Nc4ccc(Oc5ccc6c(c5)ncn6C)c(C)c4F)ncnc3cn1)C2 [Example 27, 1-(exo-3-((4-((2-Fluoro-3-methyl-4-((1-methyl-1H-benzo[d]iimidazol-5-yl)oxy)phenyl)amino)pyrido[3,4-d]pyrimidin-6-yl)oxy)-8-azabicyclo[3.2.1]octan-8-yl)prop-2-en-1-one] | 12.5 nM | 100% |  |  |  |  |
| C=CC(=O)N1[C@@H]2CC[C@H]1C[C@@H](Oc1cc3c(Nc4ccc(Oc5ccn6ncnc6c5)c(C)c4)ncnc3cn1)C2 [Example 16, 1-(endo-3-((4-((4-([1,2,4]Triazolo[1,5-a]pyridin-7-yloxy)-3-methylphenyl)amino)pyrido[3,4-d]pyrimidin-6-yl)oxy)-8-azabicyclo[3.2.1]octan-8-yl)prop-2-en-1-one] | 9 nM | 100% | 15.7 nM | 100% | 73% | 7350 nM |
| C=CC(=O)N1[C@@H]2CC[C@H]1C[C@@H](Oc1cc3c(Nc4ccc(Oc5ccn6ncnc6c5)c(C)c4F)ncnc3cc1OCC)C2 [Example 17, 1-(endo-3-((4-((4-([1,2,4]Triazolo[1,5-a]pyridin-7-yloxy)-2-fluoro-3-methylphenyl)amino)-7-ethoxyquinazolin-6-yl)oxy)-8-azabicyclo[3.2.1]octan-8-yl)prop-2-en-1-one] | 5.1 nM | 100% | 13.9 nM | 100% |  |  |
| C=CC(=O)N1[C@@H]2CC[C@H]1C[C@H](Oc1cc3c(Nc4ccc(Oc5ccn6ncnc6c5)c(C)c4F)ncnc3cn1)C2 [Example 21, 1-(exo-3-((4-((4-([1,2,4]Triazolo[1,5-a]pyridin-7-yloxy)-2-fluoro-3-methylphenyl)amino)pyrido[3,4-d]pyrimidin-6-yl)oxy)-8-azabicyclo[3.2.1]octan-8-yl)prop-2-en-1-one] | 5.3 nM | 100% | 10.4 nM | 100% | 100% | 913 nM |
| C=CC(=O)N1[C@@H]2CC[C@H]1C[C@H](Oc1cc3c(Nc4ccc(Oc5ccc6c(c5)ncn6C)c(C)c4)ncnc3cn1)C2 [Example 28, 1-(exo-3-((4-((3-Methyl-4-((1-methyl-1H-benzo[d]iimidazol-5-yl)oxy)phenyl)amino)pyrido[3,4-d]pyrimidin-6-yl)oxy)-8-azabicyclo[3.2.1]octan-8-yl)prop-2-en-1-one] | 18.1 nM | 100% |  |  | −1.76% | > 10000 nM |
